Source: ChEMBL document CHEMBL1201862, “PubChem BioAssay data set” (2004)
Active and inactive are the calls of the source.

Columns and labels:
Genome polyprotein = Genome polyprotein (dengue virus type 2, UniProt P29990); experiment: Dengue-2 NS5 methyltransferase inhibitors, primary screen, biochemical, confirmation dose response (AID 588689); assay type: functional
Vero = experiment: cells; assay type: functional; details: Chlorocebus sabaeus
[1] = Luminescence Cell-Based Dose Retest to Confirm Inhibitors of Cancer Stem Cells. [Related pubchem assays (depositor defined):AID2717, AID2721]; assay type: functional; details: Homo sapiens
INS1 = experiment: beta cell apoptosis inhibitors, cytokine rescue, dose response, luminescence, retest (AID 449756); assay type: functional, cell-based; details: Rattus norvegicus;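 also: cell death triggered by IL-1 beta plus TNF-alpha plus IFN-gamma mixture; protective hits raise ATP signal compared with cytokine alone wells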
[2] = growth suppression of PTEN-null colon cells, dose response, cell-based, HCT116 PTEN knockout (AID 1047); assay type: functional;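 also: HCT116 colon tumor cells with PTEN knocked out; cells exposed to compound for 60 hours before readout; potency for loss of cell viability measured by luminescence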
[3] = growth suppression of beta-catenin-knockout colon cells, dose response, cell-based, HCT116, human colon tumor (AID 1045); assay type: functional;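 also: HCT116 colon tumor cells with beta catenin knocked out; cells exposed to compound for 60 hours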
[4] = target: FAD-linked sulfhydryl oxidase ALR (Homo sapiens, UniProt P55789); experiment: inhibitors of human ALR sulfhydryl oxidase, dose response, biochemical, H2O2 detection, luminescence, cherry-pick (AID 493248)
Chain of FAD-linked sulfhydryl oxidase ALR (P55789 whole entry): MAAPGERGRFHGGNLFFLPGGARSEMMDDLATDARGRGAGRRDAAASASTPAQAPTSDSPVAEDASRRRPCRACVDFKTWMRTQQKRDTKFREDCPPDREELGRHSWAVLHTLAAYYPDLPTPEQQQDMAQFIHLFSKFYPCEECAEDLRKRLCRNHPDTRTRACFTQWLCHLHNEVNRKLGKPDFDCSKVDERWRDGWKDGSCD

[5] = HeLa cell cytotoxicity, dose response, cytotoxicity control for MgcRacGAP inhibitor project (AID 624300); assay type: functional
[6] = target: Glyceraldehyde-3-phosphate dehydrogenase (Homo sapiens, UniProt P04406)
Chain of Glyceraldehyde-3-phosphate dehydrogenase (P04406 whole entry): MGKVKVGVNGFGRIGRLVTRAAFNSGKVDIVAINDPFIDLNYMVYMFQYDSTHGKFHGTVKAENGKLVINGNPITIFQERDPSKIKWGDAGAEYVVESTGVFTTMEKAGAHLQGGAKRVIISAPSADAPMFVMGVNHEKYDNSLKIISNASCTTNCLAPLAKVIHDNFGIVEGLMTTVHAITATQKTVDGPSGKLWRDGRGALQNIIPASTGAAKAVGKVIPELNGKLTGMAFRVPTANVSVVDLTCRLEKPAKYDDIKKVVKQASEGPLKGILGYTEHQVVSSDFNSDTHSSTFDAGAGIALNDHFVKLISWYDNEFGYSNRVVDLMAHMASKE

Estrogen receptor beta = Estrogen receptor beta (Homo sapiens, UniProt Q92731);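 also: recombinant ER-beta bound to coactivator SRC1 peptide in presence of estradiol agonist; inhibitors block coactivator peptide binding and lower the FRET signal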
Chain of Estrogen receptor beta (Q92731 whole entry): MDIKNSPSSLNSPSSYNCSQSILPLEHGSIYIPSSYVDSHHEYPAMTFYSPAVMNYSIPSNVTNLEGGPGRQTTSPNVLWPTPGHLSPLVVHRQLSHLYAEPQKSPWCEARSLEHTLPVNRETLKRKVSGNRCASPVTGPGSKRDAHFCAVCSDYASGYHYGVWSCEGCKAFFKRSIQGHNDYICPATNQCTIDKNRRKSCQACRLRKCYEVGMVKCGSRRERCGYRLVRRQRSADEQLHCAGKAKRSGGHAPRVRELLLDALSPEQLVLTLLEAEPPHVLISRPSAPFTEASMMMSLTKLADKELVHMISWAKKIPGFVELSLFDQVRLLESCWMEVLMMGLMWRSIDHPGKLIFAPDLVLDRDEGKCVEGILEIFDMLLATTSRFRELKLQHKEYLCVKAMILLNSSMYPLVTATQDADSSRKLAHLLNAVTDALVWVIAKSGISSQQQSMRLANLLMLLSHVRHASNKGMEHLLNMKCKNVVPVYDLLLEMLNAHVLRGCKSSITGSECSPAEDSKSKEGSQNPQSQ

Chain of Genome polyprotein (P29990 2492-3391 limits assumed): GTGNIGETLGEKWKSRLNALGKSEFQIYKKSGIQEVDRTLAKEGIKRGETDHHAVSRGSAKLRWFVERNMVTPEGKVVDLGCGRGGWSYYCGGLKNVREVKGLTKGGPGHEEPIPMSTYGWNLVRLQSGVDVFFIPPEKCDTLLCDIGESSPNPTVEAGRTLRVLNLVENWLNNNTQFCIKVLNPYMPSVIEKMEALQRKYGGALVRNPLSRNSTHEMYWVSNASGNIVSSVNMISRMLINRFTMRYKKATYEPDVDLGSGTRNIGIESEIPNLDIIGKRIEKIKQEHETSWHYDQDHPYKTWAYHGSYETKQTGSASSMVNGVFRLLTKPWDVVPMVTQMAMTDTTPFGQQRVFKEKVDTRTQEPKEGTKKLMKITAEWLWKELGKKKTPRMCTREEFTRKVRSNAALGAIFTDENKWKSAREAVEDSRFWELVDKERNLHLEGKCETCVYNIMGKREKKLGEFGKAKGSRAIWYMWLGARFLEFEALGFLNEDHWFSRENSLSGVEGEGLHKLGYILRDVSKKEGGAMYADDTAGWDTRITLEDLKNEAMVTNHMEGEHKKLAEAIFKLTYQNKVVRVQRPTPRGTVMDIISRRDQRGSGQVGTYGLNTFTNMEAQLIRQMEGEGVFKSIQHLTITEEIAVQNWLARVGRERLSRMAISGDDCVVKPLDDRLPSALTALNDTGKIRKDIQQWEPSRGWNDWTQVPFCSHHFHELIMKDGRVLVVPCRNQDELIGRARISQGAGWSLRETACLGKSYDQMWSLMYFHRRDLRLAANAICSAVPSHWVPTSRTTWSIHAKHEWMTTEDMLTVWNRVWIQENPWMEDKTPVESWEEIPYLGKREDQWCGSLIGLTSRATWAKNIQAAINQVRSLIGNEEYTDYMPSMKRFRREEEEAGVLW

## CC(=O)n1cc(C=C2C(=O)NC(=O)NC2=O)c2ccccc21
Genome polyprotein
  IC50: 42.8 µM (active)

## O=C(Nc1ccccc1C(F)(F)F)N1CCN(c2ccc3nnc(-c4ccc(F)cc4)n3n2)CC1
Vero
  CC50: > 25 µM (active)

## C=CCn1c(SCC(=O)c2[nH]c(C)c(C(=O)OCC)c2C)nc2scc(-c3ccc(OC)c(OC)c3)c2c1=O
[1]
  AC50: 2.05 µM (active)
INS1
  AC50: 3.37 µM (active)
[2]
  EC50: 6.55 µM (active)
[3]
  EC50: 7.26 µM (active)

## COc1cc(OC)c(NC(=O)C(=O)CC(=O)c2ccc(C)cc2C)cc1Cl
Vero
  CC50: 9.4 µM (active)

## Cc1ccc(-n2nnnc2Sc2ccc(S(=O)(=O)NCCN(C)C)cc2[N+](=O)[O-])cc1
[1]
  AC50: 2.59 µM (active)
[2]
  EC50: 2.26 µM (active)
[3]
  EC50: 2.05 µM (active)

## Cc1ccc(-c2[nH]c3ccccc3c2SCCNC(=O)c2ccc(S(=O)(=O)N3CCOCC3)cc2)cc1
[2]
  EC50: 112 µM (active)
[3]
  EC50: 152 µM (active)

## COc1ccccc1N1CCN(S(=O)(=O)c2ccccc2)CC1
[4]
  AC50: 7.31 µM (active)

## O=C(/C=C/c1ccc([N+](=O)[O-])cc1)/C=C/c1ccco1
[5]
  CC50: 100 µM (active)

## O=C(O)CCC(=O)Nc1ccc(O)c(C(=O)O)c1
[6]
  IC50: > 100 µM (not active)

## O=C(CSc1nc2ccccc2s1)NO
[6]
  IC50: > 100 µM (not active)

## COc1cccc(/C=C2/C(=O)NN(c3ccccc3)C2=O)c1
Genome polyprotein
  IC50: 45.8 µM (active)

## CN1C(=O)/C(=C2\SC(N)=NC2=O)c2ccccc21
[2]
  EC50: 33.2 µM (active)
[3]
  EC50: 44.1 µM (active)

## CN1CCCC(OC(=O)c2ccc3c(c2)OCCO3)C1 (stereo unspecified)
Estrogen receptor beta
  IC50: > 50 µM (not active)

## Nc1ccc(C(=O)Nc2cccc(N)c2)cc1
[4]
  AC50: 1.96 µM (active)
